Legend:
[1] = test system: pu22 (DNA, G4) TGAGGGTGGGTAGGGTGGGTAA; experiment: CD melting, 263 nm; conditions: no metal cations, 10 mM Tris-HCl, pH 7, 2 µM DNA, 4 µM compound (2 equiv), free Tm 27 °C
[2] = test system: CPG-tel26 (DNA, G4) TTAGGGTTAGGGTTAGGGTTAGGGTT; experiment: G4-CPG affinity chromatography, UV; conditions: 50 mM KCl; 10% DMSO, 10% ethanol; 60 µM compound loaded; error ±2%
[3] = test system: CPG-c-myc (DNA, G4) TGGGGAGGGTGGGGAGGGTGGGGAAGGTGGGGA; experiment: G4-CPG affinity chromatography, UV; conditions: 50 mM KCl; 10% DMSO, 10% ethanol; 60 µM compound loaded; error ±2%
[4] = test system: CPG-ds27 (DNA, hairpin) CGCGAATTCGCGTTTCGCGAATTCGCG; experiment: G4-CPG affinity chromatography, UV; conditions: 50 mM KCl; 10% DMSO, 10% ethanol; 60 µM compound loaded; error ±2%
[5] = test system: ds12 (DNA, duplex) CGCGAATTCGCG; experiment: CD titration; conditions: 20 mM KCl, 5 mM potassium phosphate; pH 7, 20 °C; 2 µM DNA; up to 4 µM compound; no relevant CD effect
[6] = test system: tel26 (DNA, G4) TTAGGGTTAGGGTTAGGGTTAGGGTT; experiment: CD melting, 290 nm; conditions: 20 mM KCl, 5 mM potassium phosphate, pH 7, 2 µM DNA, 4 µM compound (2 equiv), free Tm 43 °C
[7] = test system: ds12 (DNA, duplex) CGCGAATTCGCG; experiment: CD melting, 253 nm; conditions: 20 mM KCl, 5 mM potassium phosphate; pH 7; 2 µM DNA; 4 µM compound (2 equiv); free Tm 65 °C

Row | Structure (SMILES) | ΔTm [1] | Bound ligand (%) [2] [%] | Bound ligand (%) [3] [%] | Bound ligand (%) [4] [%] | binding [5] | ΔTm [6] | ΔTm [7] | ΔTm ([6]; switch to parallel fold) | ΔTm ([1]; two transitions)
1 | C[n+]1ccc(C#Cc2cnc3n4ccnc4n4c(C#Cc5cc[n+](C)cc5)cnc4n23)cc1 | +45 °C | 79 | 100 | 40 | – | – | – | – | –
2 | C[n+]1ccccc1C#Cc1cnc2n1c1ncc(C#Cc3cccc[n+]3C)n1c1ncc(C#Cc3cccc[n+]3C)n21 | – | 89 | 99 | 56 | – | – | +15 °C | +22 °C | +16/ + 63 °C
3 | C[n+]1ccc(C#Cc2cnc3n2c2ncc(C#Cc4cc[n+](C)cc4)n2c2ncc(C#Cc4cc[n+](C)cc4)n32)cc1 | – | 75 | 90 | 50 | – | – | +15 °C | +23 °C | –

Second part, the molecule after the results:

Row | ΔTm [1] | Bound ligand (%) [2] [%] | Bound ligand (%) [3] [%] | Bound ligand (%) [4] [%] | binding [5] | ΔTm [6] | ΔTm [7] | ΔTm ([6]; switch to parallel fold) | ΔTm ([1]; two transitions) | Structure (SMILES)
4 | – | 72 | 85 | 10 | no | +3 °C | −2 °C | – | – | C[n+]1ccccc1C#Cc1cnc2n3ccnc3n3ccnc3n12
5 | – | 74 | 84 | 39 | – | – | – | – | – | C[n+]1ccccc1C#Cc1cnc2n3ccnc3n3c(C#Cc4cccc[n+]4C)cnc3n12
6 | +8 °C | 66 | 88 | 15 | no | – | – | – | – | C[n+]1ccc(C#Cc2cnc3n4ccnc4n4ccnc4n23)cc1

— paper PMC12223358 (2025)
